Like-named read-outs stand apart in the source and are kept apart here.
Target: Human Factor D (Homo sapiens (Human), UniProt P00746)
Assay: Human Factor D Assay
Format: biochemical
Settings: read-out: IC50
Protocol: Human Factor D (purified from human serum, Complement Technology, Inc.) at 80 nM final concentration was incubated with test compound at various concentrations for 5 minutes at room temperature in 50 mM Tris, 1M NaCl, pH 7.5. A synthetic substrate Z-L-Lys-SBzl and DTNB (Ellman's reagent) are added to final concentrations of 100 μM each. […] IC50 values are calculated by nonlinear regression of complement Factor D reaction rates as a function of test compound concentration.

[1] = Human Factor D 80 nM, substrate Z-L-Lys-SBzl

Human Factor D, sequence (P00746 26-253): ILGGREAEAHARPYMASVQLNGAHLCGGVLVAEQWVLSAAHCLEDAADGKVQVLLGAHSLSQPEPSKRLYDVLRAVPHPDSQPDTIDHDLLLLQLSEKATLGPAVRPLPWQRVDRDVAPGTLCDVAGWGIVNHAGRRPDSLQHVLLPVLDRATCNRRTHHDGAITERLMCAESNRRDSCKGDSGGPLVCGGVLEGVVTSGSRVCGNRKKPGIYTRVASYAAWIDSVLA

Row | SMILES | IC50 (Human Factor D, Table 3) | IC50 [1]
1 | CC(=O)c1nn(CC(=O)N2C(C(=O)Nc3cccc(Br)n3)C[C@@]3(CN(C)C)C[C@@H]23)c2ccc(-c3cnc(C)nc3)cc12 (stereo in doubt) [Compound 577, (1R,3S,5R)-2-(2-(3-Acetyl-5-(2-methylpyrimidin-5-yl)-1H-indazol-1-yl)acetyl)-N-(6-bromopyridin-2-yl)-5-((dimethylamino)methyl)-2-azabicyclo[3.1.0]hexane-3-carboxamide] | < 1 µM | –
2 | CC(=O)c1nn(CC(=O)N2C(C(=O)Nc3cccc(Br)n3)C[C@]3(CN(C)C)C[C@H]23)c2ccc(-c3cnc(C)nc3)cc12 (stereo in doubt) [Compound 578, (1S,3S,5S)-2-(2-(3-acetyl-5-(2-methylpyrimidin-5-yl)-1H-indazol-1-yl)acetyl)-N-(6-bromopyridin-2-yl)-5-((dimethylamino)methyl)-2-azabicyclo[3.1.0]hexane-3-carboxamide] | < 1 µM | –
3 | CC(=O)c1nn(CC(=O)N2C[C@@](F)(CF)CC2C(=O)Nc2nc(Br)ccc2C)c2ccc(-c3cnc(N)nc3)cc12 (stereo in doubt) [Compound 579, (2S,4R)-1-(2-(3-acetyl-5-(2-aminopyrimidin-5-yl)-1H-indazol-1-yl)acetyl)-N-(6-bromo-3-methylpyridin-2-yl)-4-fluoro-4-(fluoromethyl) pyrrolidine-2-carboxamide] | < 1 µM | –
4 | NC(=O)c1nn(CC(=O)N2C[C@H](F)C[C@H]2C(=O)Nc2cccc(-c3ccccc3Cl)c2F)c2ccc(-c3cn[nH]c3)cc12 [Compound 1] | – | < 1 µM
5 | NC(=O)c1nn(CC(=O)N2C[C@H](F)C[C@H]2C(=O)Nc2cccc(-c3ccccc3Cl)c2F)c2ccc(-c3cncnc3)cc12 [Compound 2] | – | < 1 µM
6 | NC(=O)c1nn(CC(=O)N2C[C@H](F)C[C@H]2C(=O)Nc2cccc(Br)n2)c2ccc(-c3ccc(N4CCOCC4)cc3)cc12 [Compound 3, 1-(2-((2S,4R)-2-((6-Bromopyridin-2-yl)carbamoyl)-4-fluoropyrrolidin-1-yl)-2-oxoethyl)-5-(4-morphlinophenyl)-1H-indazole-3-carboxamide] | – | < 1 µM
7 | NC(=O)c1nn(CC(=O)N2[C@@H]3C[C@@H]3C[C@H]2C(=O)Nc2cccc(Br)n2)c2ccc(-c3cncnc3)cc12 [Compound 4] | – | < 1 µM
8 | NC(=O)c1nn(CC(=O)N2C[C@H](F)C[C@H]2C(=O)Nc2cccc(Br)n2)c2ccc(-c3cncnc3)cc12 [Compound 5, 1-(2-((2S,4R)-2-(6-bromopyridin-2-ylcarbamoyl)-4-fluoropyrrolidin-1-yl)-2-oxoethyl)-5-(pyrimidin-5-yl)-1H-indazole-3-carboxamide] | – | < 1 µM
9 | NC(=O)c1nn(CC(=O)N2[C@@H]3C[C@@H]3C[C@H]2C(=O)Nc2cccc(-c3ccccc3Cl)c2F)c2ccc(-c3cncnc3)cc12 [Compound 6, 1-(2-((1R,3S,5R)-3-((2′-Chloro-2-fluoro-[1,1′-biphenyl]-3-yl)carbamoyl)-azabicyclo[3.1.0]hexan-2-yl)-2-oxoethyl)-5-(pyrimidin-5-yl)-1H-indazole-3-carboxamide] | – | < 1 µM
10 | NC(=O)c1nn(CC(=O)N2[C@@H]3C[C@@H]3C[C@H]2C(=O)Nc2cccc(-c3ccccc3Cl)c2F)c2ccc(-c3ncccn3)cc12 [Compound 7, 1-(2-((1R,3S,5R)-3-(2′-chloro-2-fluorobiphenyl-3-ylcarbamoyl)-2-azabicyclo[3.1.0]hexan-2-yl)-2-oxoethyl)-5-(pyrimidin-2-yl)-1H-indazole-3-carboxamide] | – | < 1 µM
11 | NC(=O)c1nn(CC(=O)N2[C@@H]3C[C@@H]3C[C@H]2C(=O)Nc2cccc(OC(F)(F)F)c2F)c2ccc(-c3cncnc3)cc12 [Compound 8, 1-(2-((1R,3S,5R)-3-(2-fluoro-3-(trifluoromethoxy)phenylcarbamoyl)-2-azabicyclo[3.1.0]hexan-2-yl)-2-oxoethyl)-5-(pyrimidin-5-yl)-1H-indazole-3-carboxamide] | – | < 1 µM

From patent US10287301B2 (Achillion Pharmaceuticals, Inc., priority 2015, dated 2019)
